# Laboratory results published in ChEMBL document CHEMBL4765227, “Hit to lead optimization of a series of N-[4-(1,3-benzothiazol-2-yl)phenyl]acetamides as monoacylglycerol lipase inhibitors with potential anticancer activity” (Eur J Med Chem, 2016).
# Experiments:
# [1] = target: T1, Monoglyceride lipase (Homo sapiens, UniProt Q99685); test: Inhibition of human MAGL using 4-Nitrophenylacetate as substrate
# T1 sequence (Q99685 whole entry): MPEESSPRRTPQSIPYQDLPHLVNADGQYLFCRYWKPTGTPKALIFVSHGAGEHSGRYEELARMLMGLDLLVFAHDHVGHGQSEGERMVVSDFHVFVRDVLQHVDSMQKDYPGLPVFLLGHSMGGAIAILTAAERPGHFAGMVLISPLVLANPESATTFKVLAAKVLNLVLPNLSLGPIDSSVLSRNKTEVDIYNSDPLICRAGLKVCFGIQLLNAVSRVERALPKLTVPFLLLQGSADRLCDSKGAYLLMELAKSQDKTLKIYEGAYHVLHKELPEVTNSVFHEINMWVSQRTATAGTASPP
# [2] = system: K562; test: Growth inhibition of human K562 cells at 10 uM incubated for 48 hrs by sulforhodamine B assay relative to control; assay type: functional; details: read-out: GI
# [3] = system: EKVX; test: Growth inhibition of human EKVX cells at 10 uM incubated for 48 hrs by sulforhodamine B assay relative to control; assay type: functional; details: read-out: GI
# [4] = system: NCI-H23; test: Growth inhibition of human NCI-H23 cells at 10 uM incubated for 48 hrs by sulforhodamine B assay relative to control; assay type: functional; details: read-out: GI
# [5] = system: NCI-H322M; test: Growth inhibition of human NCI-H322M cells at 10 uM incubated for 48 hrs by sulforhodamine B assay relative to control; assay type: functional; details: read-out: GI
# [6] = system: NCI-H460; test: Growth inhibition of human NCI-H460 cells at 10 uM incubated for 48 hrs by sulforhodamine B assay relative to control; assay type: functional; details: read-out: GI
# [7] = system: NCI-H522; test: Growth inhibition of human NCI-H522 cells at 10 uM incubated for 48 hrs by sulforhodamine B assay relative to control; assay type: functional; details: read-out: GI
# [8] = system: KM12; test: Growth inhibition of human KM12 cells at 10 uM incubated for 48 hrs by sulforhodamine B assay relative to control; assay type: functional; details: read-out: GI
# [9] = system: SW-620; test: Growth inhibition of human SW-620 cells at 10 uM incubated for 48 hrs by sulforhodamine B assay relative to control; assay type: functional; details: read-out: GI
# [10] = system: SF-539; test: Growth inhibition of human SF-539 cells at 10 uM incubated for 48 hrs by sulforhodamine B assay relative to control; assay type: functional; details: read-out: GI
# [11] = system: MDA-MB-435; test: Growth inhibition of human MDA-MB-435 cells at 10 uM incubated for 48 hrs by sulforhodamine B assay relative to control; assay type: functional; details: read-out: GI
# [12] = system: SK-MEL-2; test: Growth inhibition of human SK-MEL-2 cells at 10 uM incubated for 48 hrs by sulforhodamine B assay relative to control; assay type: functional; details: read-out: GI
# [13] = system: OVCAR-8; test: Growth inhibition of human OVCAR-8 cells at 10 uM incubated for 48 hrs by sulforhodamine B assay relative to control; assay type: functional; details: read-out: GI
# [14] = system: A498; test: Growth inhibition of human A498 cells at 10 uM incubated for 48 hrs by sulforhodamine B assay relative to control; assay type: functional; details: read-out: GI
# [15] = system: SN12C; test: Growth inhibition of human SN12C cells at 10 uM incubated for 48 hrs by sulforhodamine B assay relative to control; assay type: functional; details: read-out: GI
# [16] = system: UO-31; test: Growth inhibition of human UO-31 cells at 10 uM incubated for 48 hrs by sulforhodamine B assay relative to control; assay type: functional; details: read-out: GI
# [17] = system: MDA-MB-231; test: Growth inhibition of human MDA-MB-231 cells at 10 uM incubated for 48 hrs by sulforhodamine B assay relative to control; assay type: functional; details: read-out: GI
SMILES,IC50 [1] [µM],inhibition of growth at 10 µM [2] [%],inhibition of growth at 10 µM [3] [%],inhibition of growth at 10 µM [4] [%],inhibition of growth at 10 µM [5] [%],inhibition of growth at 10 µM [6] [%],inhibition of growth at 10 µM [7] [%],inhibition of growth at 10 µM [8] [%],inhibition of growth at 10 µM [9] [%],inhibition of growth at 10 µM [10] [%],inhibition of growth at 10 µM [11] [%],inhibition of growth at 10 µM [12] [%],inhibition of growth at 10 µM [13] [%],inhibition of growth at 10 µM [14] [%],inhibition of growth at 10 µM [15] [%],inhibition of growth at 10 µM [16] [%],inhibition of growth at 10 µM [17] [%]
O=C(CN1C(=O)C(=O)c2ccccc21)Nc1ccc(-c2nc3ccccc3s2)cc1,> 100,21.3,14.2,4.61,-0.03,-2.87,4.88,0.88,-0.74,-0.12,-3.52,0.87,4.11,10.7,4.5,15.5,6.18
O=C(CN(c1ccccc1)c1ccccc1)Nc1ccc(-c2nc3ccccc3s2)cc1,> 100,3.89,-9.19,3.7,-4.73,-0.29,2.41,-6.94,-3.33,4.21,-4.11,-0.42,-0.82,6.91,-3.04,3.62,-3.01
